# According to patent US6573296B2, “Therapeutic quassinoid preparations with antineoplastic, antiviral, and herbistatic activity” (priority 1997, dated 2003):
# Read-outs that look alike come from different tables or passages of the source.
# Tests used:
# [1] = tested on: H8; test: soft agar disk diffusion zone of inhibition assay; type: cell-based, human
# Description: (§1) The following human tumors were used: Human adenosquamous lung tumor H-125 (7) and colon tumors H8, HCT-116, and CX-1 were used for in vitro testing only. Each human cell line was maintained in culture until plating was done. HCT-116, H8, and CX-1 were maintained in McCoy's media and heat inactivated fetal bovine serum (11% FBS). It was passaged (1:5 dilution) twice week following enzymatic dissociation using a trypsin/PBS-EDTA mixture. H-125 was maintained in CMRL/Fischer media (1:1) with 11% FBS. It was mechanically dissociated and passaged (3:10 dilution) weekly. For the plating assay, all cells were mechanically dispersed and diluted in the CMRL/Fischer. media mixture.
# [2] = tested on: CX-1; test: soft agar disk diffusion zone of inhibition assay; type: cell-based, human
# Description: as §1
# [3] = tested on: colon adenocarcinoma #38 [C38]; test: in vivo chemotherapy of SC transplanted tumor; parameters: species or system mice; conditions: for Cures / MTD Total Dose: C38; for Cures: IV at MTD, cured/total mice; for MTD Total Dose: IV, days: Glaucarubinone 3,5-10, Holacanthone 3-12, Glaucarubolone 3-6, Chaparrinone 3-9; for in vivo activity against C38, in words: mouse
# Description: (§2) Mice. Inbreds mice used were C57B1/6, C3H/He, Balb/c, and DBA/2; hybrids were: B6D2F1 (C57B1/6 females×DBA/2 males), and CD2F1 (Balb/c females×DBA/2 males). All mice were obtained from the Frederick Cancer Research Facility, Frederick, Md.
# (§3) Tumors were maintained in the mouse strain of origin and were transplanted into either an appropriate F1 hybrid or the strain of origin for therapy trials. All mice were over 17 g at the start of therapy; the range of individual body weights in each experiment was within 2 g. The mice were supplied food and water ad libitum.
# (§4) Antitumor Agents. The compound easily dissolved in the diluent which consisted of 3% [V/V (100%-Pure)] Ethanol, 1% (V/V) polyoxyethylanesorbitan monopalmitate (P.O.E.40) and 96% sterile distilled water. The primary route of administration was intravenous (IV).
# (§5) […] Chemotherapy. The methods of protocol design, tumor transplantation, drug treatment, endpoint determination, definition of terms, toxicity evaluation, data analysis, quantification of tumor cell kill, and the biologic significance of the drug treatment results with transplantable tumors have been presented. The following is a brief summary of those methods as they apply to the work described.
# (§6) The animals necessary to begin an experiment were pooled, implanted bilaterally SC on day 0 with 30 to 60 mg tumor fragments using a 12 gauge trocar, and again pooled before randomization to the various treatment and control group. Chemotherapy was either started within 3 days after tumor implantation while the number of cells per mouse was relatively small (10^7 to 10^8 cells), or allowed to grow to palpation (about 3×10^8 cells) in a more advanced stage trial.
# (§7) Tumors were measured with a caliper either once or twice weekly (as needed) until either tumors exceeded 1500 mg or cure was. assured. Tumor weights were estimated from two-dimensional measurements:
# (§8) Tumor Weight (mg)=(a×b^2)/2, where a and b are the tumor length and width (mm) respectively.
# (§9) Tumor growth delay. (T-C value), where T is the median time (in days) required for the treatment group tumors to reach a predetermined size, and C is the median time (in days) for the control group tumors to reach the same size. Tumor-free survivors were excluded from these calculations (cures were tabulated separately).
# (§10) Calculation of tumor cell kill. For SC growing tumors, the log10 cell kill was calculated from the following formula: [formula]
# (§11) Where T-C is the tumor growth delay (in days) as described above and Td is the tumor volume doubling time (in days), the latter estimated from the best fit straight line from a log-linear growth plot of the control-group tumors in exponential growth (500 to 1500 mg range). The conversion of the T-C values of log10 cell kill is possible because the Td for tumors regrowing post-treatment approximated the Td values of the tumors in untreated control mice.
# (§12) Determination of activity by tumor growth inhibition (T/C value). Measurements were carried out simultaneously in both the treatment and control groups. When the control group tumors reached approximately 750-1500 mg in size (median of group), the median tumor weight of each group was determined (including zeros).
# [4] = tested on: mammary adenocarcinoma 17/A/ADR [Mamm 17/Adr]; test: in vivo chemotherapy of SC transplanted tumor; parameters: species or system mice
# Description: as §2, §3, §4, §5, §6, §7, §8, §9, §10, §11, §12
# [5] = tested on: mammary adenocarcinoma #16/C [Mamm 16/C]; test: in vivo chemotherapy of SC transplanted tumor; parameters: species or system mice; conditions: for MTD Total Dose: MAM 16/C, IV days: Glaucarubinone 1-11, Holacanthone 1-9/, Chaparrinone 1-6; for in vivo activity against Mam 16/C, in words: mouse
# Description: as §2, §3, §4, §5, §6, §7, §8, §9, §10, §11, §12
# [6] = tested on: M17/Adr; conditions: multidrug resistant, p-glycoprotein expressing mammary tumor versus leukemia
# [7] = tested on: leukemia and solid tumor cells; test: in vitro differential cytotoxicity, solid tumor versus leukemia; type: cell-based; conditions: for solid tumor selectivity in vitro: solid tumor versus leukemia zones
# [8] = tested on: L1210; test: soft agar disk diffusion zone of inhibition assay; type: cell-based, mice
# [9] = tested on: C38; test: soft agar disk diffusion zone of inhibition assay; type: cell-based, mice
# [10] = tested on: porcine pseudorabies virus; conditions: rabbit kidney cells, visually monitored
# [11] = tested on: soybean hypocotyls; test: growth of sections cut from dark-grown soybean hypocotyls; conditions: Excised segments of etiolated soybean hypocotyls (18 h)
# [12] = tested on: Tomato plants; test: growth of plants in peat after treatment; type: in vivo
# Description: Tomato plants about 3.5 cm high at the time of treatment were grown in peat in a flat of 1.5 inch diameter compartments and were treated with either aqueous simalikalactone (solution QD-1) or aqueous glaucarubolone (solution QD-2) containing 0.1% Triton X-100. The final volume/plant was 10 μ1 for the aqueous solution and 200 µl of the aqueous solution containing Triton X-100. […] With the aqueous treatment, plants also were inhibited but not as markedly as with detergent.
# [13] = tested on: human rhinovirus-14; test: cytopathic effect of rhinovirus in HeLa cells; type: cell-based; conditions: HeLa cells (Wisconsin strain), visually observed
# Description: C. HeLa cells (Wisconsin strain, Berlin, Germany) were contacted with human rhinovirus-14. Infected cells (Wisconsin strain) were visually observed. […] HeLa cells were not killed by any compounds used. Cells of other HeLa lines (eg. ATCC CCL2) were killed. Glaucarubolone, simalikalactone D and chaparrinone were tested on cell killing and virus production by primary blood monocytes. All three drugs were tested at five concentrations (0, 10^−9, 10^−8, 10^−7, and 10^−6 M). Drugs were given at different times pre-infection, given at the time of infection, or were administered at different times post-infection.
# [14] = target: NADH oxidase; test: NADH oxidase activity of soybean hypocotyl plasma membrane vesicles; type: biochemical; conditions: Isolated PM vesicles; read-out: ED50, Inhibition of NADH oxidase
# [15] = tested on: P388; test: soft agar disk diffusion zone of inhibition assay; type: cell-based, mice; conditions: 0.25 ug/disk
# [16] = tested on: pancreatic ductal adenocarcinoma #03 [PO3]; test: in vivo chemotherapy of SC transplanted tumor; parameters: species or system mice; conditions: for % T/C / Cures / Log Cell Kill / MTD Total Dose: PO3
# Description: as §2, §3, §4, §5, §6, §7, §8, §9, §10, §11, §12
# [17] = tested on: MX-1; test: soft agar disk diffusion zone of inhibition assay; type: cell-based, human; conditions: dose line (5, 1 or 0.3 ug/disk) not clear
# [18] = tested on: C16; test: in vivo chemotherapy of SC transplanted tumor; parameters: species or system mice
# Description: as §2, §3, §4, §5, §6, §7, §8, §9, §10, §11, §12
# [19] = 5 ug/disk (figure before the colon)
# [20] = IV days: Glaucarubinone 4-15, Peninsularinone 3-13
# [21] = C16, IV days 3,5,7,9,11,13 (Twice Daily)
# [22] = IV days 4,6,8,10,12,14 (Twice Daily)
compound,measurement,setting,value
CC1=CC(=O)[C@@H](O)[C@]2(C)[C@H]3[C@@]4(O)OC[C@@]35[C@@H](C[C@@H]12)OC(=O)C[C@H]5[C@@H](C)[C@H]4O [Chaparrinone],zone of inhibition H8,[1]; 5 ug/disk,270 ZONE UNITS
same,zone of inhibition CX-1,[2]; 5 ug/disk,480 ZONE UNITS
same,Cures,[3],3/5
same,MTD Total Dose,[3],232 mg/kg
same,"in vivo activity against C38, in words",[3],therapeutic activity
same,% T/C,"[4]; MAM 17/AdR, IV days 1-10",42%
same,Cures,"[4]; MAM 17/AdR, IV days 1-10",0/5
same,MTD Total Dose,"[4]; MAM 17/AdR, IV days 1-10",260 mg/kg
same,"in vivo activity against Mam 17/Adr, in words","[4]; mouse, in vivo",activity
same,MTD Total Dose,[5],90 mg/kg
same,"in vivo activity against Mam 16/C, in words",[5],activity
same,differential / selectivity for M17/Adr (Mam 17/Adr),[6],demonstrated selectivity
same,solid tumor selectivity in vitro,[7],demonstrated solid tumor selectivity
same,zone of inhibition L1210,[8]; [19],5:200 ZONE UNITS
same,zone of inhibition C38,[9]; 5 ug/disk,920 ZONE UNITS
CC(=O)O[C@H]1C(=O)O[C@@H]2C[C@H]3C(C)=CC(=O)[C@@H](O)[C@]3(C)[C@H]3[C@@]4(O)OC[C@]32[C@@H]1[C@@H](C)[C@H]4O [Holacanthone],zone of inhibition CX-1,[2]; 12 ug/disk,900 ZONE UNITS
same,Cures,[3],0.5
same,MTD Total Dose,[3],188 mg/kg
same,MTD Total Dose,[5],80 mg/kg
same,differential / selectivity for M17/Adr (Mam 17/Adr),[6],demonstrated selectivity
same,solid tumor selectivity in vitro,[7],demonstrated solid tumor selectivity
same,zone of inhibition L1210,[8]; 12 ug/disk,12:310 ZONE UNITS
same,zone of inhibition C38,[9]; 12 ug/disk,950 ZONE UNITS
CC[C@@H](C)C(=O)O[C@H]1C(=O)O[C@@H]2C[C@H]3C(C)=CC(=O)[C@@H](O)[C@]3(C)[C@H]3[C@@H](O)[C@H](O)[C@]4(C)OC[C@]32[C@@H]14 [simalikalactone D],cytopathic effect of porcine pseudorabies virus,[10],Inhibitory effect was also observed
same,EC50,"[11]; read-out: ED50, Inhibition of 2,4-D (1 μM)-induced growth",3.5 µM
same,EC50,"[11]; read-out: ED50, Inhibition of control growth",2.5 µM
same,"effect on tomato plants, in words","[12]; 1:1000 and 1:10,000 dilutions in detergent solution, 30 days after treatment",still inhibited
same,"effect on tomato plants, in words",[12]; 100 Mm diluted 1:100 in 0.1% Triton X-100,did not grow and eventually died
same,cytopathic effect of human rhinovirus-14,[13],Cytopathic effect was delayed
same,EC50,[14],0.4 µM
(−)-Peninsularinone,cytopathic effect of porcine pseudorabies virus,[10],Inhibitory effect was also observed
same,"zone of inhibition (P388), printed in C38 column",[15],700 (P388) ZONE UNITS
same,zone of inhibition H8,[1]; 0.25 ug/disk,510 ZONE UNITS
same,% T/C,[16]; [20],3%
same,Cures,[16]; [20],0/5
same,Log Cell Kill,[16]; [20],2.0
same,MTD Total Dose,[16]; [20],4.3 mg/kg
same,zone of inhibition L1210,[8]; 0.25 ug/disk,0.25:310 ZONE UNITS
same,cytopathic effect of human rhinovirus-14,[13],Cytopathic effect was delayed
Ailanthinone,zone of inhibition CX-1,[2]; 2 ug/disk,300 ZONE UNITS
same,solid tumor selectivity in vitro,[7],no solid tumor selectivity
same,zone of inhibition L1210,[8]; 2 ug/disk,2:290 ZONE UNITS
same,zone of inhibition C38,[9]; 2 ug/disk,340 ZONE UNITS
Glaucarubinone,"zone of inhibition (MX-1), printed in H8 column",[17],600 (MX-1) ZONE UNITS
same,zone of inhibition CX-1,"[2]; dose line (5, 1 or 0.3 ug/disk) not clear",400 ZONE UNITS
same,% T/C,[18]; [21],42%
same,Cures,[18]; [21],0/5
same,MTD Total Dose,[18]; [21],18 mg/kg
same,"in vivo activity against Col26, in words","[18]; mouse, in vivo",Antitumor activity
same,Cures,[3],1/5
same,MTD Total Dose,[3],9.1 mg/kg
same,"in vivo activity against C38, in words",[3],curative activity
same,% T/C,[16]; [22],0%
same,Cures,[16]; [22],0.6
same,Log Cell Kill,[16]; [22],3.1
same,MTD Total Dose,[16]; [22],16 mg/kg
same,% T/C,[16]; [20],15%
same,Cures,[16]; [20],1/6
same,Log Cell Kill,[16]; [20],1.5
same,MTD Total Dose,[16]; [20],16 mg/kg
same,"in vivo activity against PO3, in words","[16]; mouse, in vivo",curative activity
same,MTD Total Dose,[5],24 mg/kg
same,"in vivo activity against Mam 16/C, in words",[5],Antitumor activity
same,differential / selectivity for M17/Adr (Mam 17/Adr),[6],no differential
same,zone differential for PO3,"[7]; PO3 versus L1210, compared with 400 units for C38","similar, or greater differential"
same,solid tumor selectivity in vitro,[7],solid tumor selective
same,zone of inhibition L1210,[8]; 0.3 ug/disk,160 ZONE UNITS
same,zone of inhibition L1210,[8]; 1 ug/disk,300 ZONE UNITS
same,zone of inhibition L1210,[8]; [19],600 ZONE UNITS
same,zone of inhibition C38,[9]; 0.3 ug/disk,450 ZONE UNITS
same,zone differential between C38 and L1210,[9]; 1 ug/disk,400 units
same,zone of inhibition C38,[9]; 1 ug/disk,700 ZONE UNITS
same,zone of inhibition C38,[9]; 5 ug/disk,950 ZONE UNITS
quassimarine,cytopathic effect of porcine pseudorabies virus,[10],Inhibitory effect was also observed
same,cytopathic effect of human rhinovirus-14,[13],Cytopathic effect was delayed
